Test results from ChEMBL document CHEMBL3872283, “Design, Synthesis, and Evaluation of Novel and Selective G-protein Coupled Receptor 120 (GPR120) Spirocyclic Agonists” (ACS Med Chem Lett, 2017).
Activity calls are given as the source filed them. The rule behind the calls is not given here.

Columns and labels:
[1] = MRT in rhesus monkey at 0.5 mg/kg, iv or 1 mg/kg, po by LC/MS/MS analysis; type: ADME, organism-based, Macaca mulatta; settings: in vivo
[2] = AUC in mouse at 2 mg/kg, iv by LC/MS/MS analysis; type: ADME, organism-based; settings: in vivo
[3] = target: T1, Free fatty acid receptor 4 (Mus musculus, UniProt Q7TMA4); assay: Agonist activity at mouse GPR120 expressed in U2OS cells assessed as induction of beta-arrestin2 recruitment after 90 mins by luminescence assay; type: cell-based
T1 sequence (Q7TMA4 whole entry): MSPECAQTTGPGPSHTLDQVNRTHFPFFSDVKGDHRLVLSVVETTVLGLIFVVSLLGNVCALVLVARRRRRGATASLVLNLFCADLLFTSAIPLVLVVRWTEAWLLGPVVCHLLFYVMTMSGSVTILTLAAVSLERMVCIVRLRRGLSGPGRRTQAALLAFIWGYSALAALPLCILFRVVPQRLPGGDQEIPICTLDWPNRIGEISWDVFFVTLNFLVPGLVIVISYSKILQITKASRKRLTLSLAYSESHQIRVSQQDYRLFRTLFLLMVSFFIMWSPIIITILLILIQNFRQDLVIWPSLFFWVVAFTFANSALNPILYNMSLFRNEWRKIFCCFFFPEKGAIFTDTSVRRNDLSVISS

[4] = Plasma clearance in mouse at 2 mg/kg, iv or 10 mg/kg, po by LC/MS/MS analysis; type: ADME, organism-based
[5] = Oral bioavailability in dog at 2 mg/kg by LC/MS/MS analysis; type: ADME, organism-based, Canis lupus familiaris; settings: in vivo
[6] = Half life in rat at 1 mg/kg, iv or 2 mg/kg, po by LC/MS/MS analysis; type: ADME, organism-based; settings: in vivo
[7] = Oral bioavailability in mouse at 10 mg/kg by LC/MS/MS analysis; type: ADME, organism-based; settings: in vivo
[8] = Protein binding in rat plasma at 1 mg/kg, iv or 2 mg/kg, po by LC/MS/MS analysis; type: ADME, organism-based; settings: read-out: PPB (converted)
[9] = Volume of distribution at steady state in rat at 1 mg/kg, iv or 2 mg/kg, po by LC/MS/MS analysis; type: ADME, organism-based; settings: in vivo, read-out: Vdss
[10] = target: T2, Peroxisome proliferator-activated receptor alpha (Homo sapiens) (UniProt Q07869); assay: Binding affinity to human PPARalpha
T2 sequence (whole entry): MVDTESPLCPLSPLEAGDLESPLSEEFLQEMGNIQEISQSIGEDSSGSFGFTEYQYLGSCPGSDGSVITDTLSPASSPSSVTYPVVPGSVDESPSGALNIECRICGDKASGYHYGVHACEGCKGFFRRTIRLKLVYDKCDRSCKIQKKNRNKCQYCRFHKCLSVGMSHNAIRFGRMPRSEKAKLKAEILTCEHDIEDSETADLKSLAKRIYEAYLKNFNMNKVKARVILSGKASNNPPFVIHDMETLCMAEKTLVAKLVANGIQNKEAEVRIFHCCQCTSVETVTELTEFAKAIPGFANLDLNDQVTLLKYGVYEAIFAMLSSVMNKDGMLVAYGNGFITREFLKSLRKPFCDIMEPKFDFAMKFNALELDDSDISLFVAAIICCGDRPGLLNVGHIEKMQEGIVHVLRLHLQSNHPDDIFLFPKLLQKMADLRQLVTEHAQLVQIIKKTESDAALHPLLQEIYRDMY

Cytochrome P450 2D6 = Cytochrome P450 2D6 (Homo sapiens, UniProt P10635); assay: Inhibition of human CYP2D6; type: ADME
[11] = Antidiabetic activity in C57BL/6 mouse at 30 mg/kg, po administered 60 mins via gavage prior to dextrose challenge measured up to 120 mins post dextrose challenge by oGTT; type: functional, organism-based
[12] = MRT in dog at 1 mg/kg, iv or 2 mg/kg, po by LC/MS/MS analysis; type: ADME, organism-based, Canis lupus familiaris; settings: in vivo
Mus musculus [13] = assay: Toxicity in diet-induced obese mouse assessed as change in body weight at 30 mg/kg, po qd administered daily via gavage for 28 days; type: organism-based; settings: in vivo, 672 h
Mus musculus [14] = assay: Decrease in insulin levels in diet-induced obese mouse at 30 mg/kg, po qd administered daily via gavage for 14 days measured on day 14 post dose; type: functional, organism-based
[15] = Volume of distribution at steady state in rhesus monkey at 0.5 mg/kg, iv or 1 mg/kg, po by LC/MS/MS analysis; type: ADME, organism-based, Macaca mulatta; settings: in vivo, read-out: Vdss
Mus musculus [16] = assay: Antidiabetic activity in diet-induced obese mouse assessed as insulin sensitivity by measuring reduction in glucose at 30 mg/kg, po qd administered daily via gavage for 28 days measured on day 28 post dose; type: functional, organism-based
[17] = AUC in rat at 1 mg/kg, iv by LC/MS/MS analysis; type: ADME, organism-based; settings: in vivo
[18] = target: Voltage-gated inwardly rectifying potassium channel KCNH2 (Homo sapiens, UniProt Q12809); assay: Displacement of [35S]-MK499 from human ERG expressed in HEK293 cell membranes
[19] = target: Free fatty acid receptor 1 (Homo sapiens, UniProt O14842); assay: Agonist activity at human GPR40 expressed in HEK293 cells assessed as induction of IP1 accumulation after 60 mins by HTRF assay; type: functional, cell-based
[20] = MRT in rat at 1 mg/kg, iv or 2 mg/kg, po by LC/MS/MS analysis; type: ADME, organism-based; settings: in vivo
Mus musculus [21] = assay: Antidiabetic activity in diet-induced obese mouse assessed as insulin sensitivity by measuring reduction in glucose at 30 mg/kg, po qd administered daily via gavage for 14 days measured on day 14 post dose; type: functional, organism-based
[22] = target: Sodium channel protein type 5 subunit alpha (Homo sapiens, UniProt Q14524); assay: Inhibition of Nav1.5 (unknown origin)
Sequence of Sodium channel protein type 5 subunit alpha (Q14524 whole entry): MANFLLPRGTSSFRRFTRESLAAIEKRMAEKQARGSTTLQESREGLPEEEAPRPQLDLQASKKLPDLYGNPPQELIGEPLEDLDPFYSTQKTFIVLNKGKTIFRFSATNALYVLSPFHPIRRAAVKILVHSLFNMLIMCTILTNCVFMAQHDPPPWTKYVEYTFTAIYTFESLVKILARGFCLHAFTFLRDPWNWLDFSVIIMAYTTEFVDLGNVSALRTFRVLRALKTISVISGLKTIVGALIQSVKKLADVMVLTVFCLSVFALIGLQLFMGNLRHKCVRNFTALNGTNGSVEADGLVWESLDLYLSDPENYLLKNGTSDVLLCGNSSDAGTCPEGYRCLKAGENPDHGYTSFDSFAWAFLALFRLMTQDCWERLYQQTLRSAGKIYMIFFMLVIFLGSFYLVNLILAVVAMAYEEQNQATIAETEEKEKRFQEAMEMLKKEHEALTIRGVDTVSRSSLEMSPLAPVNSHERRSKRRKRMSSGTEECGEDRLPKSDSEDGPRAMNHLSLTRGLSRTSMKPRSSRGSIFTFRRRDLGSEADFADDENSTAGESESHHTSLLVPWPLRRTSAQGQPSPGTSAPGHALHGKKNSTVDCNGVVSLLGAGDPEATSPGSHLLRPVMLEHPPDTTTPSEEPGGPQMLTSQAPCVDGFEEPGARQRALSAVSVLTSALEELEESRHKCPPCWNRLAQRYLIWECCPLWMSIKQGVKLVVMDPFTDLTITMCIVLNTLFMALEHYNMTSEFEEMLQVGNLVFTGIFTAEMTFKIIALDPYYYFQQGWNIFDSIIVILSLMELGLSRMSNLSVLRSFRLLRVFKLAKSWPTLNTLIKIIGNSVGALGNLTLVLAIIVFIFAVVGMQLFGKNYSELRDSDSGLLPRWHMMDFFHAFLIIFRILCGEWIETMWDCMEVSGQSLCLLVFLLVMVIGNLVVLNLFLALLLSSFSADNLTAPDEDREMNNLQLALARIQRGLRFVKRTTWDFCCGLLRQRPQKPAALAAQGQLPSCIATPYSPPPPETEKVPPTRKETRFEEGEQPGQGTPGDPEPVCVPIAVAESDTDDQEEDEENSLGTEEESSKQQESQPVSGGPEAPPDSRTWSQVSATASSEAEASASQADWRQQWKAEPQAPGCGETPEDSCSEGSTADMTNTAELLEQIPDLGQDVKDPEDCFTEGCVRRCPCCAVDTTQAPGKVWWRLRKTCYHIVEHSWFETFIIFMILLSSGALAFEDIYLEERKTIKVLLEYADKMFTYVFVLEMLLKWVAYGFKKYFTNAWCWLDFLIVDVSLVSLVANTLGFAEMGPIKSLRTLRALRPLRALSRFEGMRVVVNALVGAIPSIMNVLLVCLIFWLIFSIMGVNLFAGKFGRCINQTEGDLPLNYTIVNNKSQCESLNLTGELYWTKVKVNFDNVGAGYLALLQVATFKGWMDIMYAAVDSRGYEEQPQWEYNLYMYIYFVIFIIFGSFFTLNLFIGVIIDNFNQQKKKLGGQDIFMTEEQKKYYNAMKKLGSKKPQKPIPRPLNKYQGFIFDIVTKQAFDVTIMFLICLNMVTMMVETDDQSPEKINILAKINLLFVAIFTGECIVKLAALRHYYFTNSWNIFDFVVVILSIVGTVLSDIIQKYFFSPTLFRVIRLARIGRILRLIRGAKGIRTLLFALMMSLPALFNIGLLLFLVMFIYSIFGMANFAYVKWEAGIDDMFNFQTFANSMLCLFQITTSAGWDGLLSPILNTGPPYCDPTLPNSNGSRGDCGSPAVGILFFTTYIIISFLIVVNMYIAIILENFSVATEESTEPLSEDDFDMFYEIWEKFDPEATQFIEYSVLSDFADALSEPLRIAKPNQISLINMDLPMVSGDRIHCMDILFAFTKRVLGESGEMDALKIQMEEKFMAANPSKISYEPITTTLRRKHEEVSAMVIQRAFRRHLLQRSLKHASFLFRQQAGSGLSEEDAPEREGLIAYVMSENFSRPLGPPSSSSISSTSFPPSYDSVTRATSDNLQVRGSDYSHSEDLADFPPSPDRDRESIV

Sequence of Cytochrome P450 2D6 (P10635 whole entry): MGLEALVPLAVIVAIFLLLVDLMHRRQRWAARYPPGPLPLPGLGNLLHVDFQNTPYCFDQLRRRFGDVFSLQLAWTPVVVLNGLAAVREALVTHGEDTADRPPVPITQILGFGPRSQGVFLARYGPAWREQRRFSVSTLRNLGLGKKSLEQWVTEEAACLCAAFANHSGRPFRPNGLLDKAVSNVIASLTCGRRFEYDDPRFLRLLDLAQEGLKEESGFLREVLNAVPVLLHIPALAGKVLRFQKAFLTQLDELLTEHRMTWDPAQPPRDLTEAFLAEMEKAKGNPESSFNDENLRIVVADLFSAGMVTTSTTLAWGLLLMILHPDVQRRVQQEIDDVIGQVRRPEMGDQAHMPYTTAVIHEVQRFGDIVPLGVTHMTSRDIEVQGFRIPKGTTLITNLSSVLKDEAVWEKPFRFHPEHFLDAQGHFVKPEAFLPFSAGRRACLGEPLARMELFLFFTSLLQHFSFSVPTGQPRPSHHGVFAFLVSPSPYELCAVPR
Sequence of Voltage-gated inwardly rectifying potassium channel KCNH2 (Q12809 whole entry): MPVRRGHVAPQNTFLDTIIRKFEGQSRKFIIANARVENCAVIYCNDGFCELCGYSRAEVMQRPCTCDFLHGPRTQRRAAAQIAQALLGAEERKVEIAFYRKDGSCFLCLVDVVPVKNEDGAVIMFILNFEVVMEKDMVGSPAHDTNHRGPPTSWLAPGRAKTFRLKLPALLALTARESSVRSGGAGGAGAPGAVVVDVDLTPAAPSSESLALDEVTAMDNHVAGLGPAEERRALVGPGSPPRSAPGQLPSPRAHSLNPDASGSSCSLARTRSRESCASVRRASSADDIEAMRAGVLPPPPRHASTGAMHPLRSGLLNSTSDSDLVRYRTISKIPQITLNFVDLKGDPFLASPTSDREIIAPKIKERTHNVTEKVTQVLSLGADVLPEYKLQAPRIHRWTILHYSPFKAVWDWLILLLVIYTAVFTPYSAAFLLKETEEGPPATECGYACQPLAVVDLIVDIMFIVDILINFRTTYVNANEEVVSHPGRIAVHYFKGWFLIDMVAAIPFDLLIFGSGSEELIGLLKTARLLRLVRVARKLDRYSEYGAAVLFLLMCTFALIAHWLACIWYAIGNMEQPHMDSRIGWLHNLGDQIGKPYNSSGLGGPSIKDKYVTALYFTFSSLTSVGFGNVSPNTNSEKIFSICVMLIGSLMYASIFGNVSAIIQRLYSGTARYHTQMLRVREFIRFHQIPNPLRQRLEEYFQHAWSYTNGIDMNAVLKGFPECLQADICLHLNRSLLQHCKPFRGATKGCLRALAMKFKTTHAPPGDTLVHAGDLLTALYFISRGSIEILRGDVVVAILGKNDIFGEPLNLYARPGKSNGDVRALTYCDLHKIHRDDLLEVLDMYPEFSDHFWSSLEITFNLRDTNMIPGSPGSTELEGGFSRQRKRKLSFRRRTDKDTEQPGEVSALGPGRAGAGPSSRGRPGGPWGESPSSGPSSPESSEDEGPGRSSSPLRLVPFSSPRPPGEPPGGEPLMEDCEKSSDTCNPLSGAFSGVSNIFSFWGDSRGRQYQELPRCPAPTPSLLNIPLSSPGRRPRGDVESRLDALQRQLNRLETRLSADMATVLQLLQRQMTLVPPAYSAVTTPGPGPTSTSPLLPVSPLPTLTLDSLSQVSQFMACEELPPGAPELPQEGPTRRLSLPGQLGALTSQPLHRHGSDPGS
Sequence of Free fatty acid receptor 1 (O14842 whole entry): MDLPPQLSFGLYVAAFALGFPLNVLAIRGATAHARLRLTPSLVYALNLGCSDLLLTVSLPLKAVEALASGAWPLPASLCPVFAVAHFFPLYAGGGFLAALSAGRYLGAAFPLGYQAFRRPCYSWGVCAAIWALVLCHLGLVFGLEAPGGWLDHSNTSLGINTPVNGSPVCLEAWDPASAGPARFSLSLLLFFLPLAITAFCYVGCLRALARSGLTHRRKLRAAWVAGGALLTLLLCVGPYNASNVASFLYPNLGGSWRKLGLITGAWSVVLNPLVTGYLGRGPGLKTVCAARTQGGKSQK

Compound `O=C(O)CC1CCC2(CC1)CCN(c1cc(OC(F)(F)F)ccc1Cl)CC2` has an MRT [1] of 10.1 h, an AUC [2] of 14.6 µM·h and an EC50 [3] of 54 nM. For the same compound, the clearance [4] was 8.4 mL/min/kg, the bioavailability [5] was 100% and the half-life [6] was 1.4 h. It also gave a bioavailability [7] of 100%, a fraction unbound [8] of 0.0013 and a Vd [9] of 0.4 L/kg. The Activity [10] was over 10 µM, the INH (Cytochrome P450 2D6) was over 48 µM and the Activity [11] was “Active”. The MRT [12] was 10.5 h, the Activity (Mus musculus [13]) was “Non-Toxic” and the Activity (Mus musculus [14]) was “Active”. The Vd [15] was 1.7 L/kg, the Activity (Mus musculus [16]) was “Active” and the AUC [17] was 17.5 µM·h. The INH [18] was over 60 µM, the EC50 [19] was over 10000 nM and the MRT [20] was 3 h. For the same compound, the Activity (Mus musculus [21]) was “Active” and the INH [22] was 13 µM.
